This passage reports IC50 results from patent US20260327221A1, “INHIBITORS OF CYCLIC GMP-AMP SYNTHASE AND USES THEREOF” (Ventus Therapeutics U.S., Inc., priority 2023, published 2026).

A value given as a limit tells only on which side of the number the result lay.

hcGAS, sequence (Q8N884 whole entry): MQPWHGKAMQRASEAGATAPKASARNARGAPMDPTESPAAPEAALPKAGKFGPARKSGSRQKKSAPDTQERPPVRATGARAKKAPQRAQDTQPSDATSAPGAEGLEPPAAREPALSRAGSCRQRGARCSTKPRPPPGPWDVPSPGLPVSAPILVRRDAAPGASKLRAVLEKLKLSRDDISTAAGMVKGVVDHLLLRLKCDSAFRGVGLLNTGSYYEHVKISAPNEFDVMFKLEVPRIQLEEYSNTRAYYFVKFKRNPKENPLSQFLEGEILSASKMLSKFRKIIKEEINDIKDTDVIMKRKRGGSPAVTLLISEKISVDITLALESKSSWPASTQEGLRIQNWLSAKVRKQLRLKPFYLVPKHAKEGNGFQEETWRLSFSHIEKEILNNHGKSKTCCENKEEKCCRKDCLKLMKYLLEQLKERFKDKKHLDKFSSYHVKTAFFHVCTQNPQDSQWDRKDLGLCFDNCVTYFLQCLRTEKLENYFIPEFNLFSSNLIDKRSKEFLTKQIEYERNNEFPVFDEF

The first assay has as its target hcGAS (Homo sapiens, UniProt Q8N884). Briefly: hcGAS LCMS assay (direct measurement of cGAMP production by LC/MS). It is filed as biochemical. The settings on record: 4 h incubation with enzyme and substrates; cGAMP production by LC/MS; class symbols; read-out: hcGAS LCMS IC50. On the procedure: cGAS catalyzes the cyclization of ATP and GTP to produce cGAMP, which is the activating ligand of STING. Human cGAS (hcGAS) inhibition can thus be quantified by measuring how much cGAMP is formed either indirectly, by monitoring ATP-depletion as in the hcGAS Kinase-Glo assay (as described below), or directly, such as using the hcGAS LCMS assay (as described below).
2. hGAS LCMS Assay Conditions
Compounds were tested for their hcGAS inhibition activity using direct measurement of cGAMP production by LC/MS. Briefly, compounds were incubated with enzyme and substrates for 4 hours (see Table C), before the reaction was stopped with 3 volumes of 70/30 Acetonitrile/H2O mix containing 0.15 uM cGAMP-^13C10^15N5 as internal standard and mixed for 5 mmn. After centrifugation (3700 rpm, […], […]), 100 uL of each reaction was collected and mixed to equal volume of acetonitrile (MeCN). Samples were then analyzed on Qexactive (Column: XBridge BEH Amide Column, 130 Å, 3.5 μm, 3 mm×50 mm. Mobile phase A: 10 mM Ammonium acetate in 95/5 H2O/MeCN (0.5% DMSO), Mobile phase B: MeCN (0.5% DMSO).
The results of the assay, expressed as IC50 values, are reported in Table D with the following designations: A represents an IC50 value <0.005 μM (with A1 representing an IC50 value <0.0005 μM, A2 representing an IC50 value ≥0.0005 μM and <0.001 μM, and A3 representing an IC50 value ≥0.001 μM and <0.005 μM); B represents an IC50 value ≥0.005 μM and <0.02 μM; C represents an IC50 value ≥0.02 μM and <0.06 μM; and D represents an IC50 value ≥0.06 μM.
A word on the IC50: it is the midpoint of a concentration-inhibition curve. On to `COc1cccc(OC)c1-c1cc(C(=O)Nc2nnc(-n3nccc3N)s2)oc(=O)c1OCC(CO)N1CCOCC1` (racemic) [Rac-85, N-(5-(5-amino-1H-pyrazol-1-yl)-1,3,4-thiadiazol-2-yl)-4-(2,6-dimethoxyphenyl)-3-(3-hydroxy-2-morpholinopropoxy)-2-oxo-2H-pyran-6-carboxamide], for which the IC50 is 1 to 5 nM.
Take `COc1cccc(OC)c1-c1cc(C(=O)Nc2nnc(-n3nccc3N)s2)oc(=O)c1OC(CO)CN1CCOCC1` (racemic) [Rac-87, N-(5-(5-amino-1H-pyrazol-1-yl)-1,3,4-thiadiazol-2-yl)-4-(2,6-dimethoxyphenyl)-3-((1-hydroxy-3-morpholinopropan-2-yl)oxy)-2-oxo-2H-pyran-6-carboxamide]: the IC50 was 1 to 5 nM.
Regarding `COc1cccc(OC)c1-c1cc(C(=O)Nc2nnc(-n3nccc3N)s2)oc(=O)c1O[C@@H]1CC[C@@H](O)C1` (relative stereo) [64A*/B*], the IC50 fell in the range of 0.5 to 1 nM.
For `COc1cccc(OC)c1-c1cc(C(=O)Nc2nnc(-n3nccc3N)s2)oc(=O)c1O[C@@H]1CC[C@H](O)C1` (relative stereo) [64C*/D*], the IC50 is 0.5 to 1 nM.
On the same count and under the same terms, then `COc1cccc(OC)c1-c1cc(C(=O)Nc2nnc(-n3nccc3N)s2)oc(=O)c1O[C@H]1CCC[C@@H]1O` (single isomer, unassigned) [71A*], with 0.5 to 1 nM; and `COc1cccc(OC)c1-c1cc(C(=O)Nc2nnc(-n3nccc3N)s2)oc(=O)c1O[C@@H]1CCC[C@H]1O` (single isomer, unassigned) [71B*], with 0.5 to 1 nM; and `COc1cccc(OC)c1-c1cc(C(=O)Nc2nnc(-n3nccc3N)s2)oc(=O)c1O[C@@H]1CCC[C@@H](O)C1` (single isomer, unassigned) [109A*], with 1 to 5 nM.
The same measure, in the same setting: as for `COc1cccc(OC)c1-c1cc(C(=O)Nc2nnc(-n3nccc3N)s2)oc(=O)c1O[C@H]1CCC[C@H](O)C1` (single isomer, unassigned) [109B*], the figure is 0.5 to 1 nM.
Take `COc1cccc(OC)c1-c1cc(C(=O)Nc2nnc(-n3nccc3N)s2)oc(=O)c1O[C@@H]1CCCC[C@H]1O` (single isomer, unassigned) [110A*]: the IC50 was 1 to 5 nM.
In the case of `COc1cccc(OC)c1-c1cc(C(=O)Nc2nnc(-n3nccc3N)s2)oc(=O)c1O[C@H]1CCCC[C@@H]1O` (single isomer, unassigned) [110B*], the IC50 was 0.5 to 1 nM.
As for `COc1cccnc1-c1cc(C(=O)Nc2nnc(-n3nccc3N)s2)oc(=O)c1O[C@@H]1CC[C@H](O)C1` (single isomer, unassigned) [111A*], the IC50 is 0.5 to 1 nM.
Same read-out and setting: then `COc1cccnc1-c1cc(C(=O)Nc2nnc(-n3nccc3N)s2)oc(=O)c1O[C@H]1CC[C@@H](O)C1` (single isomer, unassigned) [111B*], with 0.5 to 1 nM; and `COc1cccnc1-c1cc(C(=O)Nc2nnc(-n3nccc3N)s2)oc(=O)c1O[C@@H]1CC[C@@H](O)C1` (single isomer, unassigned) [112A*], with 1 to 5 nM.
Still for that read-out and setting: then `COc1cccnc1-c1cc(C(=O)Nc2nnc(-n3nccc3N)s2)oc(=O)c1O[C@H]1CC[C@H](O)C1` (single isomer, unassigned) [112B*], with 1 to 5 nM; and `COc1cccnc1-c1cc(C(=O)Nc2nnc(-n3nccc3N)s2)oc(=O)c1O[C@@H]1CCC[C@@H](OC)C1` (single isomer, unassigned) [113A*], with 1 to 5 nM; and `COc1cccnc1-c1cc(C(=O)Nc2nnc(-n3nccc3N)s2)oc(=O)c1O[C@H]1CCC[C@H](OC)C1` (single isomer, unassigned) [113B*], with 0.5 to 1 nM.
With `COc1cccnc1-c1cc(C(=O)Nc2nnc(-n3nccc3N)s2)oc(=O)c1O[C@H]1CCC[C@@H](OC)C1` (single isomer, unassigned) [113C*], the IC50 is at least 60 nM.
For `COc1cccnc1-c1cc(C(=O)Nc2nnc(-n3nccc3N)s2)oc(=O)c1O[C@@H]1CCC[C@H](OC)C1` (single isomer, unassigned) [113D*], the IC50 is 5 to 20 nM.
As to `COCCOc1c(-c2c(Cl)cccc2OC)cc(C(=O)Nc2nnc(-n3nccc3N)s2)oc1=O` (single isomer, unassigned) [Compound 15A*, (Ra)—N-(5-(5-amino-1H-pyrazol-1-yl)-1,3,4-thiadiazol-2-yl)-4-(2-chloro-6-methoxyphenyl)-3-(2-methoxyethoxy)-2-oxo-2H-pyran-6-carboxamide], the concentration for half-maximal inhibition (IC50) was under 0.5 nM.
In the case of `COCCOc1c(-c2c(Cl)cccc2OC)cc(C(=O)Nc2nnc(-n3nccc3N)s2)oc1=O` (single isomer, unassigned) [Compound 15B*, (Sa)-N-(5-(5-amino-1H-pyrazol-1-yl)-1,3,4-thiadiazol-2-yl)-4-(2-chloro-6-methoxyphenyl)-3-(2-methoxyethoxy)-2-oxo-2H-pyran-6-carboxamide], the IC50 was under 0.5 nM.
Same read-out and setting: then `COCCOc1c(-c2c(C)cccc2C#N)cc(C(=O)Nc2nnc(-n3nccc3N)s2)oc1=O` (single isomer, unassigned) [Compound 24A*, (Ra)—N-(5-(5-amino-1H-pyrazol-1-yl)-1,3,4-thiadiazol-2-yl)-4-(2-cyano-6-methylphenyl)-3-(2-methoxyethoxy)-2-oxo-2H-pyran-6-carboxamide], with under 0.5 nM.
Take `COCCOc1c(-c2c(C)cccc2C#N)cc(C(=O)Nc2nnc(-n3nccc3N)s2)oc1=O` (single isomer, unassigned) [Compound 24B*, (Sa)-N-(5-(5-amino-1H-pyrazol-1-yl)-1,3,4-thiadiazol-2-yl)-4-(2-cyano-6-methylphenyl)-3-(2-methoxyethoxy)-2-oxo-2H-pyran-6-carboxamide]: the IC50 is under 0.5 nM.
In the case of `COc1cccc(Cl)c1-c1cc(C(=O)Nc2nnc(-n3nccc3N)s2)oc(=O)c1OCCO` (single isomer, unassigned) [Compound 34B*, (Ra)—N-(5-(5-amino-1H-pyrazol-1-yl)-1,3,4-thiadiazol-2-yl)-4-(2-chloro-6-methoxyphenyl)-3-(2-hydroxyethoxy)-2-oxo-2H-pyran-6-carboxamide], the IC50 is under 0.5 nM.
Regarding `COc1cccc(OC)c1-c1cc(C(=O)Nc2nnc(-n3nccc3N)s2)oc(=O)c1OC[C@@H]1COCCO1` (single isomer, unassigned) [Compound 43A*], the IC50 lay in the range of 0.5 to 1 nM.
`COc1cccc(OC)c1-c1cc(C(=O)Nc2nnc(-n3nccc3N)s2)oc(=O)c1OC[C@H]1COCCO1` (single isomer, unassigned) [Compound 43B]: the IC50 is 0.5 to 1 nM.
On the same count and under the same terms, as for `COc1cccc(OC)c1-c1cc(C(=O)Nc2nnc(-n3nccc3N)s2)oc(=O)c1O[C@@H](C)CO` (single isomer, unassigned) [Compound 55A*], the figure is 0.5 to 1 nM.
In the case of `COc1cccc(OC)c1-c1cc(C(=O)Nc2nnc(-n3nccc3N)s2)oc(=O)c1O[C@H](C)CO` (single isomer, unassigned) [Compound 55B*], the IC50 is 0.5 to 1 nM.
The same measure, in the same setting: then `COc1cccc(OC)c1-c1cc(C(=O)Nc2nnc(-n3nccc3N)s2)oc(=O)c1OC1CC(O)C1` (single isomer, unassigned) [Compound 57A, N-(5-(5-amino-1H-pyrazol-1-yl)-1,3,4-thiadiazol-2-yl)-4-(2,6-dimethoxyphenyl)-3-((1,3-trans)-3-hydroxycyclobutoxy)-2-oxo-2H-pyran-6-carboxamide], with 0.5 to 1 nM; and `COc1cccc(OC)c1-c1cc(C(=O)Nc2nnc(-n3nccc3N)s2)oc(=O)c1OC1CC(O)C1` (single isomer, unassigned) [Compound 57B, N-(5-(5-amino-1H-pyrazol-1-yl)-1,3,4-thiadiazol-2-yl)-4-(2,6-dimethoxyphenyl)-3-((1,3-cis)-3-hydroxycyclobutoxy)-2-oxo-2H-pyran-6-carboxamide], with under 0.5 nM.
The same measure, in the same setting: then `COC[C@@H](O)COc1c(-c2c(OC)cccc2OC)cc(C(=O)Nc2nnc(-n3nccc3N)s2)oc1=O` (single isomer, unassigned) [Compound 63B*], with 0.5 to 1 nM; and `COc1cccc(OC)c1-c1cc(C(=O)Nc2nnc(-n3nccc3N)s2)oc(=O)c1OC[C@H](CO)OC` [38A*, (S)-N-(5-(5-amino-1H-pyrazol-1-yl)-1,3,4-thiadiazol-2-yl)-4-(2,6-dimethoxyphenyl)-3-(3-hydroxy-2-methoxypropoxy)-2-oxo-2H-pyran-6-carboxamide], with 0.5 to 1 nM.
As for `COc1cccc(OC)c1-c1cc(C(=O)Nc2nnc(-n3nccc3N)s2)oc(=O)c1OC[C@@H](CO)OC` [38B*, (R)-N-(5-(5-amino-1H-pyrazol-1-yl)-1,3,4-thiadiazol-2-yl)-4-(2,6-dimethoxyphenyl)-3-(3-hydroxy-2-methoxypropoxy)-2-oxo-2H-pyran-6-carboxamide], the IC50 fell in the range of 0.5 to 1 nM.

Staying with this assay, now noted: hcGAS 0.5 nM; ATP 100 μM; GTP 100 μM; dsDNA 25 nM; pH 7.4; 4 h incubation; read-out: hcGAS inhibition IC50 (activity class, Table D).
For `COCCOc1c(-c2c(C)cccc2C#N)cc(C(=O)Nc2nnc(-n3nccc3N)s2)oc1=O` (single isomer, unassigned) [Compound 24A*, (Ra)—N-(5-(5-amino-1H-pyrazol-1-yl)-1,3,4-thiadiazol-2-yl)-4-(2-cyano-6-methylphenyl)-3-(2-methoxyethoxy)-2-oxo-2H-pyran-6-carboxamide], the IC50 was under 0.5 nM.
